Measured values published in patent publication US20250179047A1, “5-[7-(3,4-DIHYDRO-1H-ISOQUINOLINE-2-CARBONYL)-1,2,3,4 TETRAHYDROISOQUINOLIN-6-YL]-1H-PYRROLE-3-CARBOXAMIDE DERIVATIVES, PHARMACEUTICAL COMPOSITIONS CONTAINING THEM AND THEIR USES AS PRO-APOPTOTIC AGENTS” (LES LABORATOIRES SERVIER, priority 2022, published 2025).
Like-named read-outs stand apart in the source and are kept apart here.

How the values were obtained:
KMS-12-PE Bcl-2 WT = assay: In vitro cytotoxicity CellTiter-Glo 48 h, KMS-12-PE Bcl-2 WT; format: cell-based; conditions: Homo sapiens, KMS-12-PE, C50 = concentration needed to reach 50% of the cellular viability
Procedure, shortened: (§1)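 Viability measured by CellTiter-Glo luminescence after 48 h compound exposure (11-point curve, 37 °C, 5% CO2). Cells: KMS-12-PE transduced with wild-type or G101V-mutant Bcl-2, FACS-sorted for TagRFP. Reported C50 = concentration reaching 50% cellular viability.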

platelets = assay: Platelet depletion in SCID mice; format: in vivo; conditions: 25 mg/kg IV bolus, vs control group; for Platelet loss (%) 6 h: 6 h after dosing; for Platelet loss (%) 24 h: 24 h after dosing
Experimental: (§2) Pharmacokinetic (PK) and platelet toxicity were investigated in SCID mice. Compounds were administered at 25 mg/kg by IV bolus, and formulated in PEG/Ethanol/NaCl 0.9% (40/10/50 v/v/v).
(§3) Blood samples (3 animals/time point and 3 time points/animal) were collected over 24 h after dosing: 0.05 h, 0.5 h, 1 h, 3 h, 6 h and 24 h for PK and 6 h and 24 h for platelets.
(§4) PK samples were analyzed by liquid chromatography using tandem mass spectrometry detection (LC-MS/MS) and platelet count (109/L) was measured using an hematology analyzer. Percentage of platelet loss was calculated at both time points (T+6 h and 24 h) as compared to a control group of 6 animals. PK parameters (Cinf and AUC24, which correspond to the concentration at the end of bolus administration and the area under curve over 24 h, respectively) were also determined using a non-compartmental analysis.

[1] = Pharmacokinetics in SCID mice; format: in vivo; conditions: 25 mg/kg IV bolus; for PK parameters Cinf: concentration at the end of bolus administration; for AUC: mouse, blood, area under curve over 24 h, read-out: PK parameters AUC24
Experimental: as §2, §3, §4

KMS-12-PE Bcl-2 G101V = assay: In vitro cytotoxicity CellTiter-Glo 48 h, KMS-12-PE Bcl-2 G101V; format: cell-based; conditions: for Ratio (G101V/WT): C50 KMS-12-PE Bcl-2 G101V over C50 KMS-12-PE Bcl-2 WT; for IC50: Homo sapiens, KMS-12-PE, 48 h, CellTiter-Glo, C50 = concentration needed to reach 50% of the cellular viability
Procedure, shortened: as §1

BCL2 WT = BCL2 WT (Homo sapiens (Human), UniProt P10415); assay: TR-FRET competitive binding assay, BCL2 WT
Procedure, shortened: (§5)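 Competitive TR-FRET displacement of fluorescein-PUMA peptide (2 or 20 nM) from 0.5 nM terbium-labelled N-terminal Halo-fusion BCL2 (1-207, wild type or mutant) or BCLXL (2-196), expressed in E. coli. Buffer 50 mM Hepes pH 7.5, 150 mM NaCl, 5% DMSO; 2 h at 23°C. 520/495 nm ratio fitted over 11 points for IC50, converted to Ki.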

BCL2 G101V [2] = assay: TR-FRET competitive binding assay, BCL2 G101V; parameters: species or system human; conditions: for TR_FRET EKI G101V/WT selectivty ratio: ratio Ki BCL2 G101V / Ki BCL2 WT; for TR_FRET EKI G101V/WT selectivty: ratio of Ki BCL2 G101V to BCL2 WT
Procedure, shortened: as §5

BCL2 G101V [3] = target: BCL2 G101V (Homo sapiens, UniProt P10415, G101V); assay: TR-FRET competitive binding assay, BCL2 G101V; conditions: BCL2 G101V; Ki determined from IC50; read-out: TR_FRET EKI_Bcl2 G101V
Procedure, shortened: as §5

BCLXL WT = BCLXL WT (Homo sapiens (Human), UniProt Q07817); assay: TR-FRET competitive binding assay, BCLXL WT; conditions: for Ki: BCLXL WT, Ki determined from IC50, read-out: TR_FRET EKI BclxL; for TR_FRET EKI BCLxL/WT selectivty ratio: ratio Ki BCLxL / Ki BCL2 WT; for TR_FRET EKI BCLxL/WT selectivty: ratio of Ki BCLxL to BCL2 WT
Procedure, shortened: as §5

BCL2 D103Y = BCL2 D103Y (Homo sapiens, UniProt P10415, D103Y); assay: TR-FRET competitive binding assay, BCL2 D103Y; conditions: Ki determined from IC50, read-out: TR_FRET EKI_Bcl2 D103Y
Procedure, shortened: as §5

BCL2 D111A = BCL2 D111A (Homo sapiens, UniProt P10415, D111A); assay: TR-FRET competitive binding assay, BCL2 D111A; conditions: Ki determined from IC50, read-out: TR_FRET EKI_Bcl2 D111A
Procedure, shortened: as §5

BCL2 F104I = BCL2 F104I (Homo sapiens, UniProt P10415, F104I); assay: TR-FRET competitive binding assay, BCL2 F104I; conditions: Ki determined from IC50, read-out: TR_FRET EKI_Bcl2 F104I
Procedure, shortened: as §5

[4] = Ki determined from IC50, read-out: TR_FRET EKI_Bcl2 WT
[5] = Ki determined from IC50, read-out: TR_FRET EKI_Bcl2

Chain of BCLXL WT (Q07817 other isoform, or with tags, fused parts or gaps): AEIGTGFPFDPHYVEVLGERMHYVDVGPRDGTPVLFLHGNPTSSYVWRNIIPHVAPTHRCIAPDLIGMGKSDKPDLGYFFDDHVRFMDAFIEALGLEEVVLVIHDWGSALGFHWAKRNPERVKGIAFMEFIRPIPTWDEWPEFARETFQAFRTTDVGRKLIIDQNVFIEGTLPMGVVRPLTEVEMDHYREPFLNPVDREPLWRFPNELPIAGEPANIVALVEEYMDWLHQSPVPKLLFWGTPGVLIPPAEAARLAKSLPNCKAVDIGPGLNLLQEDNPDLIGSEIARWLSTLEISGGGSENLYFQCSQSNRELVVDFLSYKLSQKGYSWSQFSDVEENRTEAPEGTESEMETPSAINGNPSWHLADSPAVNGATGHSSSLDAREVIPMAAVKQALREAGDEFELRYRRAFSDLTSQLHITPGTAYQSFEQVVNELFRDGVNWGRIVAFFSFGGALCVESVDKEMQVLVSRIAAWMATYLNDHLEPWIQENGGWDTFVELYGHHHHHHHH

| Platelet loss (%) 6 h (platelets) [%] | Platelet loss (%) 24 h (platelets) [%] | PK parameters Cinf [1] [µM] | AUC [1] [µM·h] | Ki (BCL2 WT; [4]) [nM] | TR_FRET EKI G101V/WT selectivty ratio (BCL2 G101V [2]) | Ki (BCL2 G101V [3]) [nM] | Ki (BCLXL WT) [nM] | TR_FRET EKI BCLxL/WT selectivty ratio (BCLXL WT) | Ki (BCL2 D103Y) [nM] | Ki (BCL2 D111A) [nM] | Ki (BCL2 F104I) [nM] | Ki (BCL2 WT; [5]) [nM] | TR_FRET EKI G101V/WT selectivty (BCL2 G101V [2]) | TR_FRET EKI BCLxL/WT selectivty (BCLXL WT) | SMILES | IC50 (KMS-12-PE Bcl-2 WT) [µM] | Ratio (G101V/WT) (KMS-12-PE Bcl-2 G101V) | IC50 (KMS-12-PE Bcl-2 G101V) [µM] |
| --- | --- | --- | --- | --- | --- | --- | --- | --- | --- | --- | --- | --- | --- | --- | --- | --- | --- | --- |
| 16.1 | 12.5 | 13.5 | 18.5 | 0.9 | 5.4 | 4.9 | 53 | 58.9 | 3.7 |  |  |  |  |  | Cc1c(N(C(=O)c2cc(-c3cc4c(cc3C(=O)N3Cc5ccccc5C[C@H]3C)CN(S(=O)(=O)Cc3ccccc3)CC4)n(C)c2C)c2ccc(O)cc2)cc(C#N)n1C [Example 14, 5-[2-benzylsulfonyl-7-[(3R)-3-methyl-3,4-dihydro-1H-isoquinoline-2-carbonyl]-3,4-dihydro-1H-isoquinolin-6-yl]-N-(5-cyano-1,2-dimethyl-pyrrol-3-yl)-N-(4-hydroxyphenyl)-1,2-dimethyl-pyrrole-3-carboxamide] | 0.0096 | 8.86 | 0.0852 |
| 19.6 | 12.8 | 6.8 | 10.8 | 0.58 | 6.0 | 3.5 | 48.5 | 83.6 | 1.09 | 1.54 | 19.7 |  |  |  | Cc1c(N(C(=O)c2cc(-c3cc4c(cc3C(=O)N3Cc5ccccc5C[C@H]3C)CN(C(=O)Cc3ccc(N5CCN(CC(F)(F)F)CC5)cc3)CC4)n(C)c2C)c2ccc(O)cc2)cc(C#N)n1C [Example 23, N-(5-cyano-1,2-dimethyl-1H-pyrrol-3-yl)-N-(4-hydroxyphenyl)-1,2-dimethyl-5-{7-[(3R)-3-methyl-1,2,3,4-tetrahydroisoquinoline-2-carbonyl]-2-(2-{4-[4-(2,2,2-trifluoroethyl)piperazin-1-yl]phenyl}acetyl)-1,2,3,4-tetrahydroisoquinolin-6-yl}-1H-pyrrole-3-carboxamide] | 0.0096 | 9.34 | 0.0898 |
| 23.2 | 15.2 | 18.2 | 38.3 | 0.25 | 4.8 | 1.2 | 5.6 | 22.4 | 0.34 | 0.59 | 6.47 |  |  |  | Cc1c(N(C(=O)c2cc(-c3cc4c(cc3C(=O)N3Cc5ccccc5C[C@H]3C)CN(C(=O)Cc3ccc(C5CCN(CCF)CC5)c(F)c3)CC4)n(C)c2C)c2ccc(O)cc2)cc(C#N)n1C [Example 28, N-(5-cyano-1,2-dimethylpyrrol-3-yl)-5-[2-(2-{3-fluoro-4-[1-(2-fluoroethyl)piperidin-4-yl]phenyl}acetyl)-7-{[(3R)-3-methyl-3,4-dihydro-1H-isoquinolin-2-yl]carbonyl}-3,4-dihydro-1H-isoquinolin-6-yl]-N-(4-hydroxyphenyl)-1,2-dimethylpyrrole-3-carboxamide] | 0.0099 | 6.51 | 0.0643 |
| 33.5 | 22.5 | 8.4 | 12.6 | 0.15 | 3.3 | 0.5 | 3.7 | 24.7 | 0.22 | 0.1 | 0.5 |  |  |  | COc1ccc(CC(=O)N2CCc3cc(-c4cc(C(=O)N(c5ccc(O)cc5)c5cc(C#N)n(C)c5C)c(C)n4C)c(C(=O)N4Cc5ccccc5C[C@H]4CN4CCCCC4)cc3C2)c(F)c1 [Example 33, N-(5-cyano-1,2-dimethylpyrrol-3-yl)-5-{2-[2-(2-fluoro-4-methoxyphenyl)acetyl]-7-{[(3S)-3-(piperidin-1-ylmethyl)-3,4-dihydro-1H-isoquinolin-2-yl]carbonyl}-3,4-dihydro-1H-isoquinolin-6-yl}-N-(4-hydroxyphenyl)-1,2-dimethylpyrrole-3-carboxamide] | 0.0054 | 9.09 | 0.0491 |
| 33.7 | 18.2 | 8.2 | 9.7 | 0.34 | 2.6 | 0.9 | 5.3 | 15.6 | 0.52 | 0.2 | 0.27 |  |  |  | Cc1c(N(C(=O)c2cc(-c3cc4c(cc3C(=O)N3Cc5ccccc5C[C@H]3CN3CCCCC3)CN(C(=O)Cc3ccc(OCCC5CCOCC5)cc3F)CC4)n(C)c2C)c2ccc(O)cc2)cc(C#N)n1C [Example 34, N-(5-cyano-1,2-dimethylpyrrol-3-yl)-5-[2-(2-{2-fluoro-4-[2-(oxan-4-yl)ethoxy]phenyl}acetyl)-7-{[(3S)-3-(piperidin-1-ylmethyl)-3,4-dihydro-1H-isoquinolin-2-yl]carbonyl}-3,4-dihydro-1H-isoquinolin-6-yl]-N-(4-hydroxyphenyl)-1,2-dimethylpyrrole-3-carboxamide] | 0.0052 | 5.29 | 0.0275 |
|  |  |  |  |  |  | 0.84 | 14.9 |  | 0.21 | 0.2 | 1.6 | 0.06 | 14 | 248.3 | Cc1c(C(=O)N(c2ccc(O)cc2)c2cnn(C(F)F)c2)cc(-c2cc3c(cc2C(=O)N2Cc4ccccc4C[C@H]2C)CN(C(=O)Cc2ccc(OCCN4CCOCC4)cc2)CC3)n1C [Example 228, N-[1-(difluoromethyl)pyrazol-4-yl]-5-[2-[2-[4-(2-morpholinoethoxy)phenyl]acetyl]-7-[(3R)-3-methyl-3,4-dihydro-1H-isoquinoline-2-carbonyl]-3,4-dihydro-1H-isoquinolin-6-yl]-N-(4-hydroxyphenyl)-1,2-dimethyl-pyrrole-3-carboxamide] | 0.0146 | 11.0 | 0.161 |
|  |  |  |  |  |  | 0.22 | 1.8 |  | 0.11 | 0.1 | 0.164 | 0.04 | 5.5 | 45 | Cc1c(N(C(=O)c2cc(-c3cc4c(cc3C(=O)N3Cc5ccccc5C[C@H]3CN3CCCCC3)CN(C(=O)Cc3ccc(OCCN5CCOCC5)cc3F)CC4)n(C)c2C)c2ccc(O)cc2)cc(C#N)n1C [Example 229] | 0.00502 | 4.4 | 0.0222 |
